Values of other authors, collected in publication PMC4956231, “Molecular Mechanisms for Drug Hypersensitivity Induced by the Malaria Parasite’s Chloroquine Resistance Transporter” (PLoS Pathogens, 2016).

Key:
[1] = test system: P. falciparum line 106/1^76T; details: 106/1^76T (PfCRT^K1); IC50 in line divided by IC50 in drug-sensitive reference strain; cited from earlier work
[2] = test system: P. falciparum line 106/1^76I,352R; details: 106/1^76I,352R (76I,352R-PfCRT^K1); IC50 in line divided by IC50 in drug-sensitive reference strain; cited from earlier work

In the case of `CCN(CC)CCCC(C)Nc1ccnc2cc(Cl)ccc12` (centres unmarked) [CQ, chloroquine], the “Drug susceptibility (In vitro resistance index)” value [1] is listed as 12.95 ± 0.95 and the “Drug susceptibility (In vitro resistance index)” value [2] is listed as 1.58 ± 0.02.
